From the supplement of paper PMC11208160 come the findings set out here.

The series in a line: recombinant barcode read abundance after kanamycin selection (control-corrected) (log10(CPM+1)); higher = more efficient recombination; sequences stand for … in AGTGCAGAGAAAATCGGCCAGTTTTCTCTGCCTGCAGTCCGCATGCCGT…ATTTATGCAGCGGACTGCCTTTCTCCCAAAGTGATAAACCGGACAGTATCATGGACCGGTTTTCCCGGTAATCCGTATTTGCAAGGTTGGTTTCACT; site = the 11-nt target. The gist of the method: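 A promoter, a target, a barcode and the first 104 bridge RNA bases under J23119 made up each oligo. Oligos were Gibson-cloned into a vector bearing the other 73 bp and a T7-inducible recombinase, then co-electroporated into E. coli with a donor plasmid and plated in duplicate on chloramphenicol/ampicillin LB agar (control) or chloramphenicol/ampicillin/kanamycin with 0.1 mM IPTG. Recombination efficiency is the averaged, control-corrected counts per million of recombinant-junction barcodes. Reported values are log10(CPM+1).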

As to “CGGTCCCCATGGGTTCTAACCTGTTGCCATG [CGGTCCCCTTG_LTGcore_CA_RTGcore_CA] (site CGGTCCCCTTG) (LTG core: CA, RTG core: CA)”, the “recombinant barcode read abundance (log10)” value was determined as 0.185.
In the case of “CGGTCCCCGTGGGTTCTAACCTGTTGCCACG [CGGTCCCCTTG_LTGcore_CG_RTGcore_CG] (site CGGTCCCCTTG) (LTG core: CG, RTG core: CG)”, the “recombinant barcode read abundance (log10)” value was 0.342.
“CGGTCCCCTTGGGTTCTAACCTGTTGCCAAA [CGGTCCCCTTG_LTGcore_CT_RTGcore_TT] (site CGGTCCCCTTG) (LTG core: CT, RTG core: TT)”: the “recombinant barcode read abundance (log10)” value stood at 0.0341.
The same measure for “CGGTCCCCTTGGGTTCTAACCTGTTGCCAAG [CGGTCCCCTTG_LTGcore_CT_RTGcore_CT] (site CGGTCCCCTTG) (LTG core: CT, RTG core: CT)”: 1.32.
For “CGGTCCCCTTGGGTTCTAACCTGTTGCCACA [CGGTCCCCTTG_LTGcore_CT_RTGcore_TG] (site CGGTCCCCTTG) (LTG core: CT, RTG core: TG)”, the “recombinant barcode read abundance (log10)” value is 0.0539.
The same measure for “CGGTCCCCTTGGGTTCTAACCTGTTGCCACG [CGGTCCCCTTG_LTGcore_CT_RTGcore_CG] (site CGGTCCCCTTG) (LTG core: CT, RTG core: CG)”: 0.0795.
To “CGGTCCCCTTGGGTTCTAACCTGTTGCCAGC [CGGTCCCCTTG_LTGcore_CT_RTGcore_GC] (site CGGTCCCCTTG) (LTG core: CT, RTG core: GC)” belongs 0.178; to “CGGTCCCCTTGGGTTCTAACCTGTTGCCATA [CGGTCCCCTTG_LTGcore_CT_RTGcore_TA] (site CGGTCCCCTTG) (LTG core: CT, RTG core: TA)”, 0.222; to “CGGTCCCCTTGGGTTCTAACCTGTTGCCATC [CGGTCCCCTTG_LTGcore_CT_RTGcore_GA] (site CGGTCCCCTTG) (LTG core: CT, RTG core: GA)”, 0.208.
The same measure for “CGGTCCCCTTGGGTTCTAACCTGTTGCCATT [CGGTCCCCTTG_LTGcore_CT_RTGcore_AA] (site CGGTCCCCTTG) (LTG core: CT, RTG core: AA)”: 0.369; for “GAGCCCAACTGGGTTCTAACCTGTTGCCTGT [GAGCCCACTAG_LTGcore_AC_RTGcore_AC] (site GAGCCCACTAG) (LTG core: AC, RTG core: AC)”: 0.199.
“GAGCCCAATTGGGTTCTAACCTGTTGCCTAT [GAGCCCACTAG_LTGcore_AT_RTGcore_AT] (site GAGCCCACTAG) (LTG core: AT, RTG core: AT)”: the “recombinant barcode read abundance (log10)” value came out at 0.154.
To “GAGCCCACCTGGGTTCTAACCTGTTGCCTGG [GAGCCCACTAG_LTGcore_CC_RTGcore_CC] (site GAGCCCACTAG) (LTG core: CC, RTG core: CC)” belongs 0.0451.
To “GAGCCCACGTGGGTTCTAACCTGTTGCCTAG [GAGCCCACTAG_LTGcore_CG_RTGcore_CT] (site GAGCCCACTAG) (LTG core: CG, RTG core: CT)” belongs 0.2; to “GAGCCCATCTGGGTTCTAACCTGTTGCCTGA [GAGCCCACTAG_LTGcore_TC_RTGcore_TC] (site GAGCCCACTAG) (LTG core: TC, RTG core: TC)”, 0.0397; to “GAGGCCTCATGGGTTCTAACCTGTTGCCATG [GAGGCCTCTTG_LTGcore_CA_RTGcore_CA] (site GAGGCCTCTTG) (LTG core: CA, RTG core: CA)”, 0.0323.
In the case of “GAGGCCTCCTGGGTTCTAACCTGTTGCCAAG [GAGGCCTCTTG_LTGcore_CC_RTGcore_CT] (site GAGGCCTCTTG) (LTG core: CC, RTG core: CT)”, the “recombinant barcode read abundance (log10)” value came out at 0.273.
To “GAGGCCTCGTGGGTTCTAACCTGTTGCCACG [GAGGCCTCTTG_LTGcore_CG_RTGcore_CG] (site GAGGCCTCTTG) (LTG core: CG, RTG core: CG)” belongs 0.169; to “GAGGCCTCTTGGGTTCTAACCTGTTGCCAGC [GAGGCCTCTTG_LTGcore_CT_RTGcore_GC] (site GAGGCCTCTTG) (LTG core: CT, RTG core: GC)”, 0.285; to “GAGGCCTGATGGGTTCTAACCTGTTGCCATC [GAGGCCTCTTG_LTGcore_GA_RTGcore_GA] (site GAGGCCTCTTG) (LTG core: GA, RTG core: GA)”, 0.231.
The same measure for “GAGGCCTGCTGGGTTCTAACCTGTTGCCAGC [GAGGCCTCTTG_LTGcore_GC_RTGcore_GC] (site GAGGCCTCTTG) (LTG core: GC, RTG core: GC)”: 0.275; for “GAGGCCTTATGGGTTCTAACCTGTTGCCATA [GAGGCCTCTTG_LTGcore_TA_RTGcore_TA] (site GAGGCCTCTTG) (LTG core: TA, RTG core: TA)”: 0.172; for “GAGTCCAAATGGGTTCTAACCTGTTGCGTAG [GAGTCCACTAC_LTGcore_AA_RTGcore_CT] (site GAGTCCACTAC) (LTG core: AA, RTG core: CT)”: 0.0292.
Take “GAGTCCACTTGGGTTCTAACCTGTTGCGTAG [GAGTCCACTAC_LTGcore_CT_RTGcore_CT] (site GAGTCCACTAC) (LTG core: CT, RTG core: CT)”: the “recombinant barcode read abundance (log10)” value was 2.39.
The same measure for “GAGTCCACTTGGGTTCTAACCTGTTGCGTCC [GAGTCCACTAC_LTGcore_CT_RTGcore_GG] (site GAGTCCACTAC) (LTG core: CT, RTG core: GG)”: 0.482; for “GAGTCCACTTGGGTTCTAACCTGTTGCGTGA [GAGTCCACTAC_LTGcore_CT_RTGcore_TC] (site GAGTCCACTAC) (LTG core: CT, RTG core: TC)”: 0.116.
To “GAGTCCACTTGGGTTCTAACCTGTTGCGTTT [GAGTCCACTAC_LTGcore_CT_RTGcore_AA] (site GAGTCCACTAC) (LTG core: CT, RTG core: AA)” belongs 1.07; to “GAGTCCTATTGGGTTCTAACCTGTTGCCTAG [GAGTCCTCTAG_LTGcore_AT_RTGcore_CT] (site GAGTCCTCTAG) (LTG core: AT, RTG core: CT)”, 0.0701; to “GAGTCCTATTGGGTTCTAACCTGTTGCCTAT [GAGTCCTCTAG_LTGcore_AT_RTGcore_AT] (site GAGTCCTCTAG) (LTG core: AT, RTG core: AT)”, 0.0431.
To “GAGTCCTCGTGGGTTCTAACCTGTTGCCTAG [GAGTCCTCTAG_LTGcore_CG_RTGcore_CT] (site GAGTCCTCTAG) (LTG core: CG, RTG core: CT)” belongs 0.274; to “GAGTCCTCTTGGGTTCTAACCTGTTGCCTAT [GAGTCCTCTAG_LTGcore_CT_RTGcore_AT] (site GAGTCCTCTAG) (LTG core: CT, RTG core: AT)”, 0.495; to “GAGTCCTCTTGGGTTCTAACCTGTTGCCTGC [GAGTCCTCTAG_LTGcore_CT_RTGcore_GC] (site GAGTCCTCTAG) (LTG core: CT, RTG core: GC)”, 0.293.
On to “GAGTCCTCTTGGGTTCTAACCTGTTGCCTTT [GAGTCCTCTAG_LTGcore_CT_RTGcore_AA] (site GAGTCCTCTAG) (LTG core: CT, RTG core: AA)”, for which the “recombinant barcode read abundance (log10)” value was 0.398.
The same measure for “GCGCGACAATGGGTTCTAACCTGTTGCTTAG [GCGCGACCTAA_LTGcore_AA_RTGcore_CT] (site GCGCGACCTAA) (LTG core: AA, RTG core: CT)”: 0.
To “GCGCGACACTGGGTTCTAACCTGTTGCTTAG [GCGCGACCTAA_LTGcore_AC_RTGcore_CT] (site GCGCGACCTAA) (LTG core: AC, RTG core: CT)” belongs 0.131; to “GCGCGACCGTGGGTTCTAACCTGTTGCTTAG [GCGCGACCTAA_LTGcore_CG_RTGcore_CT] (site GCGCGACCTAA) (LTG core: CG, RTG core: CT)”, 0.217; to “GCGCGACCGTGGGTTCTAACCTGTTGCTTCG [GCGCGACCTAA_LTGcore_CG_RTGcore_CG] (site GCGCGACCTAA) (LTG core: CG, RTG core: CG)”, 0.282.
On to “GCGCGACCTTGGGTTCTAACCTGTTGCTTGG [GCGCGACCTAA_LTGcore_CT_RTGcore_CC] (site GCGCGACCTAA) (LTG core: CT, RTG core: CC)”, for which the “recombinant barcode read abundance (log10)” value turned out to be 0.
Regarding “GCGCGACCTTGGGTTCTAACCTGTTGCTTTA [GCGCGACCTAA_LTGcore_CT_RTGcore_TA] (site GCGCGACCTAA) (LTG core: CT, RTG core: TA)”, the “recombinant barcode read abundance (log10)” value was found to be 0.265.
As for “GCGCGACCTTGGGTTCTAACCTGTTGCTTTG [GCGCGACCTAA_LTGcore_CT_RTGcore_CA] (site GCGCGACCTAA) (LTG core: CT, RTG core: CA)”, the “recombinant barcode read abundance (log10)” value stood at 0.102.
Consider “GCGCGACGGTGGGTTCTAACCTGTTGCTTCC [GCGCGACCTAA_LTGcore_GG_RTGcore_GG] (site GCGCGACCTAA) (LTG core: GG, RTG core: GG)”, for which the “recombinant barcode read abundance (log10)” value came out at 0.315.
To “GCGCGACGTTGGGTTCTAACCTGTTGCTTAG [GCGCGACCTAA_LTGcore_GT_RTGcore_CT] (site GCGCGACCTAA) (LTG core: GT, RTG core: CT)” belongs 0.0314; to “GCGCGACTATGGGTTCTAACCTGTTGCTTTA [GCGCGACCTAA_LTGcore_TA_RTGcore_TA] (site GCGCGACCTAA) (LTG core: TA, RTG core: TA)”, 0.118.
